Structures can show the parent of a compound that is named as a salt.
These molecules were tested on MCH58 fibroblasts (assay: Glucose versus galactose cell growth screen (metabolic state-dependent lethality)). Settings: not given.

Molecule | Sglu/gal (log10 fold change) Score
C[CH2][Hg][S]c1ccccc1C(=O)[O-].[Na+] [thimerosal] | −0.22
[O-][n+]1ccccc1[S-].[O-][n+]1ccccc1[S-].[Zn+2] [pyrithione zinc] | −0.25

Same assay, conditions: approximately 10 μM compound, 72 hours; log10 fold change of normalized cell number in glucose versus galactose

Molecule | Sglu/gal (log10 fold change) Score
CCOC(=O)C1=C[C@]2(CC)CCCN3CCc4c(n1c1ccccc41)[C@@H]32 [Vinpocetine] | 0.23
CC[C@@]1(O)C[C@H](O[C@H]2C[C@H](N(C)C)[C@H](O)[C@H](C)O2)c2c(cc3c(c2O)C(=O)c2c(O)cccc2C3=O)[C@H]1C(=O)OC [aklavine hydrochloride] | −0.33
COc1c(-c2coc3cc4c(cc3c2=O)CC(O)C(C)(C)O4)ccc2c1C=CC(C)(C)O2 (stereo not shown) [Mundulone] | 0.50
O=C1O[C@H]([C@@H](O)CO)C(O)=C1O [Ascorbic acid] | 0.15
[H]/N=C(\N/C(=N/[H])NCCCCCCNC(=N)NC(=N)Nc1ccc(Cl)cc1)Nc1ccc(Cl)cc1 [Chlorhexidine] | 0.16
C#C[C@]1(OC(C)=O)CC[C@H]2[C@@H]3CCC4=C[C@@H](OC(C)=O)CC[C@@H]4[C@H]3CC[C@@]21C [Ethynodiol diacetate] | 0.15
COc1cc2c(cc1OC)[C@@H]1C(=O)c3ccc(O)c(CC=C(C)C)c3O[C@@H]1CO2 [Rotenonic acid] | 0.33
C[C@@H]1CC[C@H]2[C@@H](C)C(=O)O[C@@H]3O[C@@]4(C)CC[C@@H]1[C@]32OO4 [Artemisinin] | 0.17
O=c1[nH]c(=O)n([C@H]2C[C@H](O)[C@@H](CO)O2)cc1F [floxuridine] | −0.28
COc1ccc(Cc2nccc3cc(OC)c(OC)cc23)cc1OC [Papaverine hydrochloride] | 0.30
CC[n+]1c(-c2ccccc2)c2cc(N)ccc2c2ccc(N)cc21 [homidium bromide] | −0.54
O=C(Nc1ccc([N+](=O)[O-])cc1Cl)c1cc(Cl)ccc1O [Niclosamide] | 0.15
COC(=O)[C@]1(C)CC[C@]2(C)CC[C@]3(C)C4=CC=C5C(=CC(=O)C(O)=C5C)[C@]4(C)CC[C@@]3(C)[C@@H]2C1 [pristimerin] | −0.37
CO[C@@H]1C[C@@H](C[C@H]2CC[C@H](C)[C@H]([C@@H](C)C(=O)O)O2)O[C@]2(O[C@](C)([C@H]3CC[C@@](C)([C@@H]4O[C@@H]([C@H]5O[C@@](O)(CO)[C@H](C)C[C@@H]5C)C[C@@H]4C)O3)C[C@H]2C)[C@@H]1C [nigericin sodium] | −0.31
C[C@@]12C(=O)OC(=O)[C@]1(C)[C@H]1CC[C@@H]2O1 [cantharidin] | −0.33
Cc1c(O)c(O)cc2c1CC=C1[C@@]2(C)CC[C@@]2(C)[C@@H]3C[C@](C)(C(=O)O)CC[C@]3(C)CC[C@]12C [dihydrocelastrol] | −0.31
CC1=C(O)C(=O)C=C2C1=CC=C1[C@@]2(C)CC[C@@]2(C)[C@@H]3C[C@](C)(C(=O)O)CC[C@]3(C)CC[C@]12C [celastrol] | −0.29
Cc1cc(N)c2ccccc2[n+]1CCCCCCCCCC[n+]1c(C)cc(N)c2ccccc21 [Dequalinium dichloride] | 0.42
COc1cc2c(cc1OC)[C@@H]1C(=O)c3ccc4c(c3O[C@@H]1CO2)CC(C(C)C)O4 (stereo partly drawn) [Beta-dihydrorotenone] | 0.85
Clc1ccc(C(Cn2ccnc2)OCc2csc3c(Cl)cccc23)c(Cl)c1 (stereo not shown) [Sertaconazole nitrate] | 0.19

Molecule | Sglu/gal (log10 fold change) Score
CCN(CC)CCOc1ccc(C(=C(Cl)c2ccccc2)c2ccccc2)cc1 [Clomiphene citrate] | 0.21
COc1cc([C@@H]2c3cc4c(cc3[C@H](O)[C@H]3COC(=O)[C@H]23)OCO4)cc(OC)c1OC [Podophyllotoxin] | −0.27
CCCCC(CC)CNC(=N)NC(=N)NCCCCCCNC(=N)NC(=N)NCC(CC)CCCC (stereo not shown) [Alexidine dihydrochloride] | 0.44
COc1ccc(C[C@H]2NC[C@H](O)[C@H]2OC(C)=O)cc1 [anisomycin] | −0.24
C=C1C(=O)O[C@@H]2C[C@@]3(C)CCC[C@H](C)C3=C[C@H]12 [helenine] | −0.22
Nonoxynol-9 | 0.46
C=C1C(=O)O[C@H]2C[C@@H]1C(OC(C)=O)C/C(C)=C/CC/C(C)=C/CC[C@@]2(C)O (stereo partly shown) [crassin acetate] | −0.35
CCCCCCc1ccc(O)cc1O.Nc1c2ccccc2nc2ccccc12 [acrisorcin] | −0.36
COc1ccccc1OCCNCC(O)COc1cccc2[nH]c3ccccc3c12 (stereo not shown) [Carvedilol] | 0.15
CC(C)N(C(=O)CCl)c1ccccc1 [propachlor] | −0.26
Cl.Cl.O=C1c2c(O)ccc(O)c2C(=O)c2c(NCCNCCO)ccc(NCCNCCO)c21 [mitoxanthrone hydrochloride] | −0.73
C=C1CC[C@@H]2[C@](C)(CO)[C@H](O)CC[C@@]2(C)[C@@H]1C/C=C1/C(=O)OC[C@H]1O [andrographolide] | −0.46
CN1CCC[C@@H]1CCO[C@](C)(c1ccccc1)c1ccc(Cl)cc1 [Clemastine fumarate] | 0.19
CC[C@]1(O)C[C@@H]2CN(CCc3c([nH]c4ccccc34)[C@@](C(=O)OC)(c3cc4c(cc3OC)N(C)[C@H]3[C@@](O)(C(=O)OC)[C@H](OC(C)=O)[C@]5(CC)C=CCN6CC[C@]43[C@@H]65)C2)C1 [vinblastine sulfate] | −0.27
C[n+]1c2cc(N)ccc2cc2ccc(N)cc21.[Cl-] [acriflavinium hydrochloride] | −0.29
CC1(C)C(=O)C=C[C@@]2(C)C1=C(O)C(=O)[C@]1(C)[C@@H]2CC[C@@]2(C)[C@H](c3ccoc3)C[C@H]3O[C@]321 [cedrelone] | −0.22
COc1cc2c(cc1OC)[C@@H]1C(=O)c3c(O)cc4c(c3O[C@@H]1CO2)C=CC(C)(C)O4 [Alpha-toxicarol] | 0.91
COc1cc2c(c(OC)c1OC)-c1ccc(OC)c(=O)cc1[C@@H](NC(C)=O)CC2 [Colchicine] | −0.26
O=C(N/N=C/c1ccc([N+](=O)[O-])o1)c1ccc(O)cc1 [Nifuroxazide] | 0.34
COc1cc2c(cc1OC)[C@@H]1C(=O)c3ccc4oc(C(C)C)cc4c3O[C@@H]1CO2 [Isorotenone] | 0.71

Molecule | Sglu/gal (log10 fold change) Score
CN(C/C=C/c1ccccc1)Cc1cccc2ccccc12 [Naftifine hydrochloride] | 0.19
CC(=O)O[C@H]1CC[C@@]2(C)[C@H](CC[C@@H]3[C@@H]2CC[C@]2(C)[C@@H](C4=CC(=O)OC4)[C@@H](OC(C)=O)C[C@]32O)C1 [gitoxigenin diacetate] | −0.21
CO[C@H]1[C@H](O)[C@H](O[C@H]2CC[C@@]3(C)[C@H](CC[C@@H]4[C@@H]3CC[C@]3(C)[C@@H](C5=CC(=O)OC5)CC[C@]43O)C2)O[C@@H](C)[C@@H]1O [neriifolin] | −0.21
Cc1cc(C(C)(C)CC(C)(C)C)ccc1OCCOCC[N+](C)(C)Cc1ccccc1.[Cl-] [Methyl benzethonium chloride] | 0.80
CC(C)c1c(O)ccc2c1CCC1C(C)(C(=O)O)CCCC21C (stereo not shown) [Totarol-19-carboxylic acid] | 0.80
N=C(N)c1ccc(OCCCCCOc2ccc(C(=N)N)cc2)cc1 [Pentamidine isethionate] | 0.24
CN(C)CCC=C1c2ccccc2C=Cc2ccccc21 [Cyclobenzaprine hydrochloride] | 0.13
CCN(CC)CCCC(C)Nc1c2ccc(Cl)cc2nc2ccc(OC)cc12 (stereo not shown) [quinacrine hydrochloride] | −0.30
15-norcaryophyllen-3-one | −0.29
CC(C)=CCCC1(C)C=Cc2c(O)c3c(c(CC=C(C)C)c2O1)OC12C(=CC4CC1C(C)(C)OC2(C/C=C(/C)C(=O)O)C4O)C3=O (stereo not shown) [dihydrogambogic acid] | −0.32
Nc1c2ccccc2nc2ccccc12 [aminacrine] | −0.29
CCCCc1ccc2[nH]c(NC(=O)OC)nc2c1 [Parbendazole] | −0.24
O=c1[nH]c(=O)n([C@H]2C[C@H](O)[C@@H](CO)O2)cc1C(F)(F)F [Trifluridine] | −0.26
CC(C)n1c(/C=C/C(O)CC(O)CC(=O)O)c(-c2ccc(F)cc2)c2ccccc21 (stereo not shown) [Fluvastatin sodium salt] | 0.16
Oc1c(Cl)cc(Cl)c2cccnc12 [chloroxine] | −0.23
CC[C@H]1CN2CCc3cc(OC)c(OC)cc3[C@@H]2C[C@@H]1C[C@H]1NCCc2cc(OC)c(OC)cc21 [emetine] | −0.22
CO[C@H]1C=C[C@@]23c4cc5c(cc4CN(C[C@@H]2O)[C@H]3C1)OCO5 [crinamine] | −0.22
CC1(C)C(=O)C=C[C@]2(C)[C@H]3CC[C@@]4(C)[C@H](c5ccoc5)OC(=O)[C@H]5O[C@]54[C@]3(C)C=C[C@@H]12 [7-desacetoxy-6,7-dehydrogedunin] | −0.22
CCN[C@H]1C[C@H](C)S(=O)(=O)c2sc(S(N)(=O)=O)cc21 [Dorzolamide hydrochloride] | 0.17

Same assay, conditions: approximately 10 μM compound, 72 hours; log10 fold change of normalized cell number in glucose versus galactose; listed as Methylbenzethonium chloride

Molecule | Sglu/gal (log10 fold change) Score
Cc1cc(C(C)(C)CC(C)(C)C)ccc1OCCOCC[N+](C)(C)Cc1ccccc1.[Cl-] [Methyl benzethonium chloride] | 0.46

Same assay, conditions: galactose versus glucose

Molecule | inhibitory activity against cell growth in galactose (SAR analysis)
CN1CCN(C(c2ccccc2)c2ccc(Cl)cc2)CC1 (stereo not shown) [chlorcyclizine] | more potent than that of homopiperazine analogue
CN(C)CCC=C1c2ccccc2CCc2ccccc21 [amitriptyline] | moderate inhibitory activity

From patent US9399032B2, “Methods and compositions for treating degenerative and ischemic disorders” (The General Hospital Corporation, priority 2009, dated 2016)
